In patent US7745417B2, “Nucleosides or nucleotides having novel unnatural bases and use thereof” (RIKEN, priority 2002, dated 2010):

Tests used:
T7 RNA polymerase [1] = biological target: T1, T7 RNA polymerase (Escherichia phage T7, UniProt P00573); settings: 0.25 mM triphosphate; product of 100 nucleotides
Experimental: (§1) The reaction composition of T7 transcription may be the same as described in Ohtsuki et al., 2001. Details are as follows: 40 mM Tris-HCl (pH 8.0), 5 mM DTT, 24 mM MgCl2, 2 mM spermidine, 0.01% TritonX-100, 10 mM GMP, 1 mM NTPs, 0-0.25 mM 5IyTP, 0.2 μl/μl template DNA, and 2.5 U/μl T7 RNA polymerase (TaKaRa). After enzymatic reaction at 37° C. for 6 hours, each reaction product was purified by electrophoresis on an 8% polyacrylamide-7M urea gel.

T7 RNA polymerase [2] = biological target: T1, T7 RNA polymerase; settings: T7 transcription
Experimental: as §1
When T7 transcription reaction is performed in the presence of [α-^32P]ATP or [α-^32P]GTP, a nucleoside 3′-phosphate (Np) 5′-terminal to A or G is labeled with ^32P. Each gel-purified RNA was completely digested into Np by RNase T2 (Sigma). If 5Iy is introduced at residue 84 or 92, the nucleoside 3′-phosphate of 5Iy (5IyTp) is labeled with ^32P via [α-^32P]GTP, while if 5Iy is introduced at residue 87, 5IyTp is labeled via [α-^32P]ATP (FIG. 5, FIG. 6-b). For base composition analysis of 5Iy-containing RNAs, each of the completely digested products was separated by 2D-TLC and determined for each nucleotide content.
More specifically, to completely digest RNA, 0.75 μl RNase T2 solution (5 units/μl; 100 mM NaOAc pH 4.5, 10% glycerol) was added to 4.25 μl aqueous solution containing the labeled RNA and a 0.25 OD E. coli-derived tRNA mixture (Sigma), followed by overnight enzymatic reaction at 37° C. A part of the reaction solution was spotted onto a 10 cm×10 cm TLC plate (Funacell SF; Funakoshi Co., Ltd., Japan) and developed in two dimensions. Developing solutions for the first and second dimensions are isobutyric acid/ammonia/water (66:1:33 by volume) and 2-propanol/hydrochloric acid/water (70:15:15 by volume), respectively. The developed spots were detected and quantified using a bioimaging analyzer (BAS2500, Fuji Photo Film Co., Ltd., Japan).
Each value was calculated from the following equation. The theoretical numbers of nucleotides are in parentheses.

T7 RNA polymerase [3] = biological target: T1, T7 RNA polymerase; settings: for incorporation into RNA opposite s in the template: 1 mM, in competition with natural NTPs; for efficiency of transcription reaction: full-length 17-mer RNA, transcription using natural base pairing set to 100%; for misincorporation opposite natural nucleotides in the template: s-free control template
Experimental: The T7 transcription reaction was performed on 20 μl scale. The composition of T7 transcription is as follows: 40 mM Tris-HCl (pH 8.0), 5 mM DTT, 8 mM MgCl2, 2 mM spermidine, 0.01% TritonX-100, 10 mM GMP, 1 mM NTPs (N=A, G, C, U, Bio-yTP, Bio^2-yTP), 2 μCi [α-^32P]ATP, 0.5 μM double-stranded DNA, and 2.5 U/μl T7 RNA polymerase (TaKaRa) [Ohtsuki et al., 2001]. After enzymatic reaction at 37° C. for 3 hours, each reaction solution was supplemented with an equal volume of a 10M urea-containing TPE solution and warmed at 75° C. for 3 minutes to stop the reaction. Aliquot parts of the reaction solutions were then electrophoresed on a 20% polyacrylamide-7M urea gel and the [α-^32P]ATP-labeled reaction products were analyzed with a bioimaging analyzer (BAS2500, Fuji Photo Film Co., Ltd., Japan).

Raf-1 RBD (GST-RBD) [4] = biological target: T2, Raf-1 RBD (GST-RBD) (Homo sapiens, UniProt P04049 P04049:51-131); experiment: EMSA; no shift even at increased GST-RBD; settings: tags: GST fusion, expressed in E. coli; 2 per XL dimer), stated; label: 32P 5'-end
Raf-1 RBD (GST-RBD) [5] = biological target: T2, Raf-1 RBD (GST-RBD); experiment: EMSA; binding to 2 GST-RBD lower than XL; settings: tags: GST fusion, expressed in E. coli; 2 per XL dimer), stated; label: 32P 5'-end
Experimental: (§2) The product (XL) obtained by crosslinking reaction an equal concentration (0.1 µM) mixture of 9A(5Iy87) and Raf-1 RBD was purified from a gel and analyzed for binding between XL and GSTRBD by gel shift assay. As a control of RNA 9A dimer, RNA 9A molecules were also linked in tandem to newly prepare RNA 9A×2 (200 nucleotides in total length), followed by gel shift assay. RNA 9A×2 is an RNA molecule of 200 nucleotides in total length that has two essential regions of RNA 9A (residues 1-80) in its molecule. It was prepared by transcription reaction using T7 RNA polymerase (Epicentre) and subcloned into vector pCR®II-TOPO (Invitrogen).
(§3) Electrophoresis was performed at room temperature and at a constant voltage (150 V) for about 2 hours (gel size: 16 cm×16 cm×1 mm). The composition of electrophoresis buffer is as follows: 12.5 mM Tris and 125 mM Glycine. Each electrophoresed gel was dried using a gel dryer and analyzed with a bioimaging analyzer (BAS2500, Fuji Photo Film Co., Ltd., Japan).

B-Raf RBD (GST-RBD) = B-Raf RBD (GST-RBD) (Homo sapiens, UniProt P15056 P15056:149-226); experiment: filter; 2 nM RNA; binds B-Raf RBD but does not inhibit B-Raf RBD/Ras interaction; settings: tags: GST fusion, expressed in E. coli; label: 32P 5'-end; pseudoknot (estimated)
Sequence of B-Raf RBD (GST-RBD) (P15056 149-226, one chain of several): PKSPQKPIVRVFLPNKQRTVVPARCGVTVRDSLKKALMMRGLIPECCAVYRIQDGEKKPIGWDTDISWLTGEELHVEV
Experimental: The binding efficiency (Binding %) to various concentrations of protein was determined for each RNA aptamer (2 nM) by a filter binding method and plotted in the figure.

Raf-1 RBD (GST-RBD) [6] = biological target: T2, Raf-1 RBD (GST-RBD); experiment: EMSA; 1 XL binds 2 GST-RBD; higher activity than 9Ax2; settings: tags: GST fusion, expressed in E. coli; 2 per XL dimer), stated; label: 32P 5'-end
Experimental: as §2, §3

T1 sequence (P00573 whole entry): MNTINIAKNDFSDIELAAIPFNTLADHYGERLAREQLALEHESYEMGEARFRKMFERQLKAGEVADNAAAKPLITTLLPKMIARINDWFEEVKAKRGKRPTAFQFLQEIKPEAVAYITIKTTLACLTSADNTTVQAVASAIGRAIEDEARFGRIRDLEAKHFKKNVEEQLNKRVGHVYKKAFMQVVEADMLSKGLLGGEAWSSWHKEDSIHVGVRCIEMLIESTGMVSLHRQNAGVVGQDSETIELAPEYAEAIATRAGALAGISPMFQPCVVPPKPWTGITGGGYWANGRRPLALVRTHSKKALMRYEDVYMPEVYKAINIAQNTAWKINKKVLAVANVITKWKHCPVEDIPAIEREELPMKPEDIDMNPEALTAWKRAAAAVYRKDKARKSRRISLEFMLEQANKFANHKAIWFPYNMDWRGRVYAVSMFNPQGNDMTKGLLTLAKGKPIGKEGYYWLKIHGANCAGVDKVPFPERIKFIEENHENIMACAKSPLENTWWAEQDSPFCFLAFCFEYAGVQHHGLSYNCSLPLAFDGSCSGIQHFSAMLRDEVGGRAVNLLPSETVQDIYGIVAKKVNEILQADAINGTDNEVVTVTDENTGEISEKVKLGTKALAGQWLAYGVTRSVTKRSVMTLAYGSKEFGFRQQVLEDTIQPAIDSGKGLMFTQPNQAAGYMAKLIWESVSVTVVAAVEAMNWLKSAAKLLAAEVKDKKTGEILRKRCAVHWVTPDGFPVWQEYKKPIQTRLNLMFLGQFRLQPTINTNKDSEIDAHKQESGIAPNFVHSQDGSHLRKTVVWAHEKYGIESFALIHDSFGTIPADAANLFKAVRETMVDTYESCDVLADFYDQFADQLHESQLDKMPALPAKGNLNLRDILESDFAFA

`O=c1[nH]cc(C#Cc2ccccc2)cc1[C@@H]1O[C@H](COP(=O)(O)OP(=O)(O)OP(=O)(O)O)[C@@H](O)[C@H]1O` [3-(β-D-ribofuranosyl)-5-(2-phenylethynyl)-pyridin-2(1H)-one 5′-triphosphate] was tested, and the “progress of transcription reaction with the unnatural triphosphate” value (T7 RNA polymerase [1]) was “confirmed to proceed”.

In the case of `O=c1[nH]cc(I)cc1[C@@H]1O[C@H](COP(=O)(O)OP(=O)(O)OP(=O)(O)O)[C@@H](O)[C@H]1O` [5IyTP, 3-(β-D-ribofuranosyl)-5-iodopyridin-2(1H)-one 5′-triphosphate], the “progress of transcription reaction with the unnatural triphosphate” value (T7 RNA polymerase [1]) is reported as “proceeded efficiently”, the “misincorporated 5Iy, share of the total” value (T7 RNA polymerase [2]) is reported as “less than 0.5%” and the “selectivity of incorporation opposite s in the template” value (T7 RNA polymerase [2]; s-containing template) is reported as ≥ 97%.

“Biotinylated 5-(3-amino-1-propenyl)-3-(β-D -ribofuranosyl)-2-pyridone 5′-triphosphate [Bio-yTP]” was tested, and the “incorporation into RNA opposite s in the template” value (T7 RNA polymerase [3]) was “competitively and selectively incorporated opposite s in the template”, the “efficiency of transcription reaction” value (T7 RNA polymerase [3]) was “about 50%” and the “misincorporation opposite natural nucleotides in the template” value (T7 RNA polymerase [3]) was “almost no misincorporation”.

In the case of “Biotinylated 5-(3-amino-1-propynyl)-3-(β-D-ribofuranosyl)-2-pyridone 5′-triphosphate [Bio^2-yTP]”, the “incorporation into RNA opposite s in the template” value (T7 RNA polymerase [3]) is reported as “competitively and selectively incorporated opposite s in the template”, the “efficiency of transcription reaction” value (T7 RNA polymerase [3]) is reported as “about 50%” and the “misincorporation opposite natural nucleotides in the template” value (T7 RNA polymerase [3]) is reported as “no misincorporation”.

B1: RNA OC (ssRNA)
RNA: GGGAGUGGAGGAAUUCAUCGAGGCAUCUGGGAACCCUAUCUUGCUUUUGGUAGCUGUAUUCACCUGUAACAGCAUAUGCCUUAGCGACAGCAAGCUUCUGC
B1: no binding (Raf-1 RBD (GST-RBD) [4]).

B2: RNA 9Ax2 (tandem 9A, 200 nt) (ssRNA)
RNA: GGGAGUGGAGGAAUUCAUCGAGGCAUAUGUCGACUCCGUCUUCCUUCAAACCAGUUAUAAAUUGGUUUUAGCAUAUGCCUUAGCGACAGCAAGCUUCUGCGGGAGUGGAGGAAUUCAUCGAGGCAUAUGUCGACUCCGUCUUCCUUCAAACCAGUUAUAAAUUGGUUUUAGCAUAUGCCUUAGCGACAGCAAGCUUCUGC
B2: binds (Raf-1 RBD (GST-RBD) [5]).

B3: RNA 9A (ssRNA)
RNA: GGGAGUGGAGGAAUUCAUCGAGGCAUAUGUCGACUCCGUCUUCCUUCAAACCAGUUAUAAAUUGGUUUUAGCAUAUGCCUUAGCGACAGCAAGCUUCUGC
B3: binds (B-Raf RBD (GST-RBD)).

B4: RNA XL (UV-crosslinked dimer of 9A(5Iy87)) (ssRNA)
RNA 1: GGGAGUGGAGGAAUUCAUCGAGGCAUAUGUCGACUCCGUCUUCCUUCAAACCAGUUAUAAAUUGGUUUUAGCAUAUGCCUUAGCGACAGCAAGCUUCUGC
RNA 2: GGGAGUGGAGGAAUUCAUCGAGGCAUAUGUCGACUCCGUCUUCCUUCAAACCAGUUAUAAAUUGGUUUUAGCAUAUGCCUUAGCGACAGCAAGCUUCUGC
modifications: 5Iy at position 87, UV-crosslinked dimer
B4: binds (Raf-1 RBD (GST-RBD) [6]).
